Data reported in PubChem BioAssay AID256 (DTP/NCI, 2004).
Where “and” joins values, the source holds several entries; their conditions need not be identical. Equal entries are not always repeated. Inconclusive results and toxic doses are left out. How the source made its calls: active means survival T/C of 150% or more; inactive means T/C below 125% in these data.

System: CD2F1 mice, L1210 leukemia ip, survival T/C
Experiment: NCI In Vivo Anticancer Drug Screen. Data for tumor model L1210 Leukemia (intraperitoneal) in CD2F1 (CDF1) mice
Details: higher = longer survival
Procedure, shortened: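 Read-out first: treated-group measurement over vehicle-control measurement, expressed as a ratio. Animals bore a transplanted tumor line and were dosed with compound or vehicle.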

[1] = endpoint: mean survival time, dose: 25.0 mg/kg/injection, schedule: Q01DX009 (ip), vehicle: saline with Tween-80
[2] = endpoint: mean survival time, dose: 100.0 mg/kg/injection, schedule: Q04DX002 (ip), vehicle: saline with Tween-80

Measured: T/C

O=C(O)CNCc1ccc2c(c1)OCCO2
inactive: endpoint: mean survival time, dose: 100.0 mg/kg/injection, schedule: Q01DX009 (ip), vehicle: Klucel (hydroxypropylcellulose) (HPC) 103 % of control | endpoint: mean survival time, dose: 200.0 mg/kg/injection, schedule: Q01DX009 (ip), vehicle: Klucel (hydroxypropylcellulose) (HPC) 98 % of control | endpoint: mean survival time, dose: 400.0 mg/kg/injection, schedule: Q01DX009 (ip), vehicle: Klucel (hydroxypropylcellulose) (HPC) 95 % of control

COC(=O)C1CN1C1=C(C)C(=O)C2=C(C1=O)C(COC(N)=O)C1(OC)C3NC3CN21 (stereo not given)
inactive: endpoint: median survival time, dose: 1.5 mg/kg/injection, schedule: Q01DX001 (ip), vehicle: water 104 % of control | endpoint: median survival time, dose: 3.0 mg/kg/injection, schedule: Q01DX001 (ip), vehicle: water 103 % of control | endpoint: median survival time, dose: 6.0 mg/kg/injection, schedule: Q01DX001 (ip), vehicle: water 123 % of control | endpoint: median survival time, dose: 12.0 mg/kg/injection, schedule: Q01DX001 (ip), vehicle: water 123 % of control | endpoint: median survival time, dose: 24.0 mg/kg/injection, schedule: Q01DX001 (ip), vehicle: water 121 % of control and 124 % of control

C(=N\Nc1nc2ccccc2s1)/c1ccnc2ccccc12
inactive: endpoint: mean survival time, dose: 100.0 mg/kg/injection, schedule: Q04DX003 (ip), vehicle: Klucel (hydroxypropylcellulose) (HPC) 94 % of control | endpoint: mean survival time, dose: 200.0 mg/kg/injection, schedule: Q04DX003 (ip), vehicle: Klucel (hydroxypropylcellulose) (HPC) 92 % of control | endpoint: mean survival time, dose: 400.0 mg/kg/injection, schedule: Q04DX003 (ip), vehicle: Klucel (hydroxypropylcellulose) (HPC) 94 % of control

CSc1nc(NC2OCC(O)C(O)C2O)cc(=O)[nH]1 (stereo not given)
inactive: endpoint: median survival time, dose: 12.5 mg/kg/injection, schedule: Q01DX005 (ip), vehicle: saline 102 % of control | endpoint: median survival time, dose: 25.0 mg/kg/injection, schedule: Q01DX005 (ip), vehicle: saline 98 % of control | endpoint: median survival time, dose: 50.0 mg/kg/injection, schedule: Q01DX005 (ip), vehicle: saline 100 % of control | endpoint: median survival time, dose: 100.0 mg/kg/injection, schedule: Q01DX005 (ip), vehicle: saline 98 % of control | endpoint: median survival time, dose: 200.0 mg/kg/injection, schedule: Q01DX005 (ip), vehicle: saline 100 % of control

COC1=C(OC)C(=O)C(SCc2ccc(OC)cc2)=CC1=O
inactive: endpoint: mean survival time, dose: 6.25 mg/kg/injection, schedule: Q01DX009 (ip), vehicle: saline with Tween-80 102 % of control | endpoint: mean survival time, dose: 12.5 mg/kg/injection, schedule: Q01DX009 (ip), vehicle: saline with Tween-80 91 % of control | [1] 87 % of control

CCC(C)N(C)/N=N/c1nc[nH]c1C(N)=O (stereo not given)
inactive: endpoint: mean survival time, dose: 200.0 mg/kg/injection, schedule: Q01DX009 (ip), vehicle: saline with Tween-80 104 % of control

CCCCN(CCCC)CC(O)c1ccccc1 (stereo not given)
inactive: [2] 88 % of control

COc1ccc(CCNC(=O)Cc2ccc3c(c2)OCO3)cc1OC
inactive: endpoint: mean survival time, dose: 100.0 mg/kg/injection, schedule: Q01DX001 (ip), vehicle: saline with Tween-80 92 % of control | [2] 87 % of control | endpoint: mean survival time, dose: 200.0 mg/kg/injection, schedule: Q01DX001 (ip), vehicle: saline with Tween-80 93 % of control | endpoint: mean survival time, dose: 200.0 mg/kg/injection, schedule: Q04DX002 (ip), vehicle: saline with Tween-80 97 % of control | endpoint: mean survival time, dose: 400.0 mg/kg/injection, schedule: Q01DX001 (ip), vehicle: saline with Tween-80 94 % of control | endpoint: mean survival time, dose: 400.0 mg/kg/injection, schedule: Q04DX002 (ip), vehicle: saline with Tween-80 93 % of control

CC1(C)CC2(OC2c2ccccc2)C(C)(O)c2ccccc21 (stereo not given)
inactive: endpoint: mean survival time, dose: 100.0 mg/kg/injection, schedule: Q01DX009 (ip), vehicle: other 105 % of control | endpoint: mean survival time, dose: 200.0 mg/kg/injection, schedule: Q01DX009 (ip), vehicle: other 113 % of control | endpoint: mean survival time, dose: 400.0 mg/kg/injection, schedule: Q01DX009 (ip), vehicle: other 104 % of control

CCOC(=O)c1ccc(Oc2ncc([N+](=O)[O-])s2)cc1
inactive: endpoint: mean survival time, dose: 4.95 mg/kg/injection, schedule: Q01DX009 (ip), vehicle: saline with Tween-80 100 % of control | endpoint: mean survival time, dose: 7.42 mg/kg/injection, schedule: Q01DX009 (ip), vehicle: saline with Tween-80 95 % of control

N#CC1C(=O)c2ccccc2C1=O
inactive: endpoint: mean survival time, dose: 25.0 mg/kg/injection, schedule: Q04DX003 (ip), vehicle: saline with Tween-80 91 % of control | endpoint: mean survival time, dose: 50.0 mg/kg/injection, schedule: Q04DX003 (ip), vehicle: saline with Tween-80 93 % of control | endpoint: mean survival time, dose: 100.0 mg/kg/injection, schedule: Q04DX003 (ip), vehicle: saline with Tween-80 93 % of control

CC[C@]12CN3CCc4c([nH]c5ccccc45)[C@@](C(=O)OC)(c4cc5c(cc4OC)N(C)[C@H]4[C@@](O)(C(=O)OC)[C@H](OC(C)=O)[C@]6(CC)C=CCN7CC[C@]54[C@@H]76)CC(C3)[C@H]1O2 (stereo not given in full)
inactive: endpoint: mean survival time, dose: 1.5 mg/kg/injection, schedule: Q01DX009 (ip), vehicle: Klucel (hydroxypropylcellulose) (HPC) 106 % of control | endpoint: mean survival time, dose: 3.0 mg/kg/injection, schedule: Q01DX009 (ip), vehicle: Klucel (hydroxypropylcellulose) (HPC) 108 % of control | endpoint: mean survival time, dose: 6.0 mg/kg/injection, schedule: Q01DX009 (ip), vehicle: Klucel (hydroxypropylcellulose) (HPC) 110 % of control | endpoint: mean survival time, dose: 6.25 mg/kg/injection, schedule: Q04DX003 (ip), vehicle: saline 111 % of control | endpoint: mean survival time, dose: 12.0 mg/kg/injection, schedule: Q01DX009 (ip), vehicle: Klucel (hydroxypropylcellulose) (HPC) 112 % of control | endpoint: mean survival time, dose: 12.5 mg/kg/injection, schedule: Q04DX003 (ip), vehicle: saline 120 % of control | endpoint: median survival time, dose: 1.0 mg/kg/injection, schedule: Q03HX008 (ip), vehicle: saline 100 % of control | endpoint: median survival time, dose: 1.0 mg/kg/injection, schedule: Q03HX016 (ip), vehicle: saline 100 % of control | endpoint: median survival time, dose: 1.0 mg/kg/injection, schedule: Q03HX024 (ip), vehicle: saline 100 % of control | endpoint: median survival time, dose: 2.0 mg/kg/injection, schedule: Q03HX008 (ip), vehicle: saline 110 % of control | endpoint: median survival time, dose: 2.0 mg/kg/injection, schedule: Q03HX016 (ip), vehicle: saline 120 % of control | endpoint: median survival time, dose: 2.0 mg/kg/injection, schedule: Q03HX024 (ip), vehicle: saline 120 % of control | endpoint: median survival time, dose: 4.0 mg/kg/injection, schedule: Q01DX009 (ip), vehicle: saline 110 % of control | endpoint: median survival time, dose: 4.0 mg/kg/injection, schedule: Q04DX003 (ip), vehicle: saline 100 % of control | endpoint: median survival time, dose: 8.0 mg/kg/injection, schedule: Q01DX001 (ip), vehicle: saline 100 % of control | endpoint: median survival time, dose: 8.0 mg/kg/injection, schedule: Q04DX003 (ip), vehicle: saline 105 % of control | endpoint: median survival time, dose: 8.0 mg/kg/injection, schedule: Q08DX002 (ip), vehicle: saline 115 % of control | endpoint: median survival time, dose: 16.0 mg/kg/injection, schedule: Q01DX001 (ip), vehicle: saline 110 % of control | endpoint: median survival time, dose: 16.0 mg/kg/injection, schedule: Q01DX009 (ip), vehicle: saline 100 % of control | endpoint: median survival time, dose: 16.0 mg/kg/injection, schedule: Q08DX002 (ip), vehicle: saline 110 % of control | endpoint: median survival time, dose: 32.0 mg/kg/injection, schedule: Q01DX001 (ip), vehicle: saline 110 % of control

NC(CO)(CO)CO
inactive: endpoint: mean survival time, dose: 100.0 mg/kg/injection, schedule: Q01DX009 (ip), vehicle: saline 98 % of control | endpoint: mean survival time, dose: 200.0 mg/kg/injection, schedule: Q01DX009 (ip), vehicle: saline 93 % of control | endpoint: mean survival time, dose: 400.0 mg/kg/injection, schedule: Q01DX009 (ip), vehicle: saline 100 % of control

O=C(SCc1ccccc1)c1cccnc1
inactive: endpoint: mean survival time, dose: 6.25 mg/kg/injection, schedule: Q01DX009 (ip), vehicle: saline 98 % of control | endpoint: mean survival time, dose: 12.5 mg/kg/injection, schedule: Q01DX009 (ip), vehicle: saline 98 % of control | [1] 94 % of control | endpoint: mean survival time, dose: 25.0 mg/kg/injection, schedule: Q01DX009 (ip), vehicle: saline 98 % of control | endpoint: mean survival time, dose: 50.0 mg/kg/injection, schedule: Q01DX009 (ip), vehicle: saline with Tween-80 96 % of control | endpoint: mean survival time, dose: 100.0 mg/kg/injection, schedule: Q01DX009 (ip), vehicle: saline with Tween-80 92 % of control
